Measurements as given in paper PMC7129073 (Clinical Microbiology and Infection, 2015).
Values after ≈ are worked out from the molar mass of the structure shown. Where two headings read alike, the source gives them in different places.

What was measured:
Acinetobacter = assay: Disk diffusion; type: cell-based
H. influenzae [1] = type: cell-based, Haemophilus influenzae
[2] = UTI under TMP-SMX prophylaxis after renal transplantation; type: in vivo, human; conditions: prophylaxis for 12 months; 104 of 336 patients
Escherichia coli = assay: Vitek 2 susceptibility, urine isolates of children; type: cell-based
[3] = tested on: Salmonella serotype Typhimurium; assay: Disk diffusion, food isolates Spain; type: cell-based; conditions: n = 53
H. influenzae [4] = assay: Broth microdilution; type: cell-based, Haemophilus influenzae; conditions: 267 isolates
H. influenzae [5] = assay: Disk diffusion, sputum isolates Athens 2001–2004; type: cell-based, Haemophilus influenzae
H.influenzae = assay: PROTEKT Italy, NCCLS microdilution; type: cell-based, Haemophilus influenzae
S. aureus SCVs = assay: Resistance of small colony variants from cystic fibrosis patients; type: cell-based, Staphylococcus aureus; conditions: CF patients, Frankfurt 2004
[6] = tested on: Salmonella serotype Enteritidis; assay: Disk diffusion, food isolates Spain; type: cell-based; conditions: n = 96
S. maltophilia = assay: Susceptibility of respiratory isolates of cancer patients; type: cell-based, Stenotrophomonas maltophilia; conditions: 40 patients
M. catarrhalis = assay: PROTEKT Italy, NCCLS microdilution; type: cell-based, Moraxella catarrhalis
[7] = tested on: glycopeptide intermediate Staphylococcus species (GISS); assay: VITEK II, screening plate and E test, blood isolates; type: cell-based, coagulase-negative Staphylococci; conditions: 73 GISS strains
S. pneumoniae [8] = assay: Broth microdilution; type: cell-based, Streptococcus pneumoniae; conditions: 275 isolates
S. aureus [9] = assay: E-test susceptibility; type: cell-based, Staphylococcus aureus
S. pneumoniae [10] = type: cell-based, Streptococcus pneumoniae
[11] = tested on: foreign body infection Staphylococcus epidermidis strains; assay: NCCLS disk diffusion; type: cell-based; conditions: 86 strains
S. pneumoniae (SPN) [12] = assay: SENTRY Brazil, NCCLS broth microdilution; type: cell-based, Streptococcus pneumoniae
C. difficile = assay: E-test, isolates from a department of surgery; type: cell-based, Clostridium difficile; conditions: Clostridioides difficile, read-out: MIC of high level resistant strains
[13] = tested on: viridans group streptococci (VGS); assay: MIC; type: cell-based
F. necrophorum = assay: E-test, 13 clinical isolates; type: cell-based, Fusobacterium necrophorum; conditions: for MIC50 / MIC90: Fusobacterium necrophorum
C. jejuni ATCC 33560 = assay: VetMIC broth microdilution, QC strain; type: cell-based; conditions: Campylobacter jejuni, ATCC33560, read-out: QC limits (MIC)
C. albicans = assay: Antifungal susceptibility; type: cell-based, Candida albicans
C. glabrata = assay: Antifungal susceptibility; type: cell-based, Candida glabrata
[14] = tested on: Coagulase Negative Staphylococci; assay: E-test susceptibility; type: cell-based
Klebsiella = assay: SMART 2003 Europe, microdilution; type: cell-based, Klebsiella spp.; conditions: 341 isolates
Gram-negative rods = assay: Microscan MIC, blood culture isolates; type: cell-based
B. fragilis group = assay: NCCLS broth microdilution, beta-lactamase positive isolates; type: cell-based, Bacteroides fragilis group; conditions: 449 isolates
[15] = tested on: Pseudomonas aeruginosa (PSA); assay: Vitek 2 susceptibility, urine isolates of children; type: cell-based; conditions: both departments
A. baumannii = assay: Italian survey of severe infections 2003, MIC; type: cell-based, Acinetobacter baumannii
E. coli [16] = assay: SMART 2003 Europe, microdilution; type: cell-based, Escherichia coli; conditions: 1106 isolates
Enterobacteriaceae = assay: SMART 2003 Europe, microdilution; type: cell-based; conditions: 1948 isolates
Enterobacter spp = assay: E-test susceptibility; type: cell-based
Escherichia coli (ECO) = assay: Broth microdilution; type: cell-based; conditions: 2001
[17] = tested on: inducible Enterobacteriaceae; assay: SMART 2003, intraabdominal isolates; type: cell-based
K. oxytoca = assay: E-test susceptibility; type: cell-based, Klebsiella oxytoca
E. coli [18] = assay: E-test susceptibility; type: cell-based, Escherichia coli
B.cepacia = assay: Italian survey of severe infections 2003, MIC; type: cell-based, Burkholderia cepacia
E. faecalis = assay: E-test susceptibility; type: cell-based, Enterococcus faecalis
Pseudomonas spp. = assay: MIC; type: cell-based
[19] = tested on: Streptococcus pyogenes (SPY); assay: MIC; type: cell-based; conditions: 2522 isolates
S. aureus [20] = assay: NCCLS broth microdilution, SSTI isolates; type: cell-based; conditions: Staphylococcus aureus
[21] = tested on: Streptococcus pneumoniae (SPN); assay: MIC; type: cell-based; conditions: 8378 isolates
S. pneumoniae [22] = assay: PROTEKT Italy, NCCLS microdilution; type: cell-based, Streptococcus pneumoniae
S. pneumoniae [23] = assay: SELECT study, levofloxacin-treated RTIs caused by S. pneumoniae; type: in vivo, human
S. pneumoniae (SPN) [24] = assay: NCCLS broth microdilution, fluoroquinolones 1999–2004; type: cell-based, Streptococcus pneumoniae; conditions: Streptococcus pneumoniae, read-out: MIC90 during the six years, 1999–2004
S. pneumoniae [25] = assay: MIC of invasive strains, Saint George Hospital 2001–2004; type: cell-based, Streptococcus pneumoniae
[26] = tested on: Pseudomonas aeruginosa (PA); assay: MIC; type: cell-based
[27] = tested on: Haemophilus influenzae (HI); assay: MIC; type: cell-based; conditions: 7489 isolates
[28] = tested on: Streptococcus agalactiae strains P0162 and P0425; assay: Microdilution; type: cell-based
[29] = tested on: Moraxella catarrhalis (MC); assay: MIC; type: cell-based; conditions: 2497 isolates
B. fragilis strains = assay: E-test MIC before and after passages on metronidazole agar; type: cell-based; conditions: Bacteroides fragilis
Clostridium difficile = assay: microbe, parasite or virus in culture; type: cell-based
[30] = tested on: Clostridium difficile (CD); assay: Agar dilution MIC, CDAD isolates Montreal; type: cell-based; conditions: Clostridioides difficile
[31] = 37 isolates selected as resistant to beta-lactams
[32] = ICU, SRGA breakpoints, tigecycline tentative S ≤2 μg/ml

trimethoprim/sulfamethoxazole
resistant isolates (Acinetobacter; [31]): 59.5%
resistant (H. influenzae [1]): 19%
patients with UTI within 2 years after transplantation [2]: 31%
susceptibility rate (Escherichia coli; paediatric surgical unit (PSU)): 35%
susceptibility rate (Escherichia coli; paediatric units (PU)): 71%
resistance rate (NCCLS M100-S13) [3]: 19%
susceptible (H. influenzae [4]): 54.3%
resistance rate (H. influenzae [5]; 2001–2002): 26.9%
resistance rate (H. influenzae [5]; 2003–2004): 13.4%
resistance (H.influenzae; year 1): 13.6%
resistance (H.influenzae; year 2): 14.1%
resistance rate of SCV isolates (S. aureus SCVs): All SCV isolates were resistant
resistance rate (NCCLS M100-S13) [6]: 7%
Susceptible isolates (S. maltophilia): 93%
susceptibility rate (M. catarrhalis; year 1): 77.3%
susceptibility rate (M. catarrhalis; year 2): 81.1%
resistance rate [7]: 38,3%
Susceptibility (S. pneumoniae [8]): 46.2%

CCC[C@@H]1C[C@@H](C(=O)N[C@@H]([C@H]2O[C@H](SC)[C@H](O)[C@@H](O)[C@H]2O)[C@H](C)Cl)N(C)C1 [clindamycin]
Susceptibility (S. aureus [9]; [32]): 99%
Susceptibility (S. aureus [9]; non-ICU): 96%
resistant (S. pneumoniae [10]): 5%
% resistant [11]: More than 30%
% S (S. pneumoniae (SPN) [12]; 1998): 94/- %
% S (S. pneumoniae (SPN) [12]; 1999): 95/- %
% S (S. pneumoniae (SPN) [12]; 2000): 96/- %
% S (S. pneumoniae (SPN) [12]; 2001): 95/- %
% S (S. pneumoniae (SPN) [12]; 2002): 100/- %
% S (S. pneumoniae (SPN) [12]; 2003): 98/- %
MIC (C. difficile): > 256 µg/mL
MIC50 [13]: 0.06 µg/mL (≈ 0.141 µM)
MIC90 [13]: 256 µg/mL (≈ 602 µM)
MIC range (F. necrophorum): 0.016 to 0.125 µg/mL
MIC50 (F. necrophorum): 0.032 µg/mL (≈ 0.0753 µM)
MIC90 (F. necrophorum): 0.064 µg/mL (≈ 0.151 µM)
Susceptibility (S. pneumoniae [8]): 91.3%

CCN1CCN(c2cc3c(cc2F)c(=O)c(C(=O)O)cn3C2CC2)CC1 [enrofloxacin]
MIC (C. jejuni ATCC 33560): 0.25 to 0.5 µg/mL (≈ 0.696 to 1.39 µM)

CC(=O)N1CCN(c2ccc(OCC3COC(Cn4ccnc4)(c4ccc(Cl)cc4Cl)O3)cc2)CC1 (stereo not drawn) [ketokonazole]
intermediate susceptibility (C. albicans): 2%
intermediate susceptibility (C. glabrata): 22%

CO[C@H]1/C=C/O[C@@]2(C)Oc3c(C)c(O)c4c(O)c(c(/C=N/N5CCN(C)CC5)c(O)c4c3C2=O)NC(=O)/C(C)=C\C=C\[C@H](C)[C@H](O)[C@@H](C)[C@@H](O)[C@@H](C)[C@H](OC(C)=O)[C@@H]1C [Rifampicin]
Susceptibility ([14]; ICU): 86%
Susceptibility ([14]; non-ICU): 97%
Susceptibility (S. aureus [9]; [32]): 99/99%
Susceptibility (S. aureus [9]; non-ICU): 99/99%

piperacillin/tazobactam
resistant isolates (Acinetobacter; [31]): 43.2%
per cent susceptible (Klebsiella): 85%
susceptible strains (n/N) (Gram-negative rods): 16/16
isolates inhibited at =/< 32 mg/L (B. fragilis group): > 99%
Susceptible isolates [15]: 74-100%
resistance (A. baumannii): 13.3%
per cent susceptible (E. coli [16]): 94%
per cent susceptible (Enterobacteriaceae): 91%
Susceptible isolates (Enterobacter spp; ICU): 78%
Susceptible isolates (Enterobacter spp; non ICU): 93%
susceptible (Escherichia coli (ECO); NAL-resistant isolates): 85.7%
susceptible (Escherichia coli (ECO); NAL-susceptible isolates): 94.2%
% susceptible ([17]; A/P (N = 200)): 80%
% susceptible ([17]; EU (N = 354)): 85%
% susceptible ([17]; LA (N=113)): 78%
% susceptible ([17]; NA (N = 163)): 82%
Susceptible isolates (K. oxytoca; ICU): 100%
Susceptible isolates (K. oxytoca; non ICU): 94%
Susceptible isolates (E. coli [18]; [32]): 98%
Susceptible isolates (E. coli [18]; non ICU): 99%
resistance (B.cepacia): 7.2%
Susceptibility (E. faecalis; ICU, SRGA breakpoints, tigecycline tentative ≤2 μg/ml): 99%
Susceptibility (E. faecalis; non-ICU): 100%
susceptible strains (Pseudomonas spp.): 92%

C[C@H]1COc2c(N3CCN(C)CC3)c(F)cc3c(=O)c(C(=O)O)cn1c23 [levofloxacin]
resistant isolates (Acinetobacter): 78.4%
MIC90 [19]: 1 ig/ml
MIC50 (S. aureus [20]): 0.25 µg/mL (≈ 0.692 µM)
per cent susceptible (Klebsiella): 93%
MIC90 [21]: 1 ig/ml
susceptible (S. pneumoniae [22]; year 1: 2002): 97.3%
susceptible (S. pneumoniae [22]; year 2: 2003): 97.1%
clinical successes (S. pneumoniae [23]; 500 mg once or twice daily, 90/100 subjects): 90%
clinical success, PNSSPs (S. pneumoniae [23]; 44/49): 89.8%
clinical success, PSSPs (S. pneumoniae [23]; 46/51): 90.2%
died due to initial infection (S. pneumoniae [23]; eight subjects): 8%
clinical failures (S. pneumoniae [23]; two subjects): 2%
MIC90 (S. pneumoniae (SPN) [24]): 1 to 2 µg/mL (≈ 2.77 to 5.53 µM)
per cent susceptible (E. coli [16]): 81%
per cent susceptible (Enterobacteriaceae): 86%
% S (S. pneumoniae [25]): 100%
%R (S. pneumoniae [25]): 0%
isolates with MPC ≥ 8 μg/ml [26]: 64%
MPC range ([26]; 10 billion organisms on agar): 2 to 16 µg/mL
MIC range ([26]; patients P1 and P2): 0.25 to 2 µg/mL
MIC50 [13]: 0.5 µg/mL (≈ 1.38 µM)
MIC90 [13]: 1 µg/mL (≈ 2.77 µM)
MIC90 [27]: 0.12 ig/ml
MIC ([28]; strain P0162 (ParC Ser79Phe, GyrA Glu85Ala)): 8 µg/mL (≈ 22.1 µM)
MIC ([28]; strain P0425 (ParC Ser79Phe, GyrA Glu85Lys)): > 32 µg/mL
% susceptible ([17]; LA (N=113)): 80%
MIC90 [29]: 0.12 ig/ml
Susceptibility (S. pneumoniae [8]): 99.6%

Cc1ncc([N+](=O)[O-])n1CCO [metronidazole]
MIC (B. fragilis strains; 10 nim-negative clinical isolates): 0.25 to 0.75 µg/mL (≈ 1.46 to 4.38 µM)
MIC (B. fragilis strains; ATCC25285, ATCC 25285, nim-negative): 0.19 µg/mL (≈ 1.11 µM)
MIC (B. fragilis strains; four nim-positive reference strains): 3 to 8 µg/mL (≈ 17.5 to 46.7 µM)
MIC (B. fragilis strains; three nim-positive clinical isolates): > 256 µg/mL
MIC (Clostridium difficile; Clostridioides difficile, read-out: MICs of selected resistant isolates): 16 to 64 µg/mL (≈ 93.5 to 374 µM)
prevalence of resistance (Clostridium difficile; authors' institution): 6%
MIC ([30]; read-out: median MIC, 2003–4): 2 µg/mL (≈ 11.7 µM)
MIC ([30]; read-out: median MIC, other ribotypes): 0.5 µg/mL (≈ 2.92 µM)
MIC range (F. necrophorum): 0.016 to 2 µg/mL
MIC50 (F. necrophorum): 0.125 µg/mL (≈ 0.73 µM)
MIC90 (F. necrophorum): 0.5 µg/mL (≈ 2.92 µM)
